Source: patent publication US4264736A, “Antibiotic 890A10” (Merck & Co., Inc., priority 1979, dated 1981)

Experiments:
[1] = system: Pseudomonas aeruginosa MB No. 979; test: Antibiotic spectrum profile, agar zone of inhibition; assay type: cell-based; conditions: MBNO.979, 0.015 ml of 9.5 μg/ml aqueous solution, 25° C., read-out: Inhib. Zone Diam.
[2] = system: Staphylococcus aureus ATCC 6538 P; test: as above; assay type: cell-based; conditions: ATCC6538, 0.015 ml of 9.5 μg/ml aqueous solution, 25° C., read-out: Inhib. Zone Diam.
[3] = system: Alcaligenes faecalis ATCC 213; test: as above; assay type: cell-based; conditions: ATCC213, 0.015 ml of 9.5 μg/ml aqueous solution, 25° C., read-out: Inhib. Zone Diam.
[4] = system: Salmonella gallinarum MB No. 1287; test: as above; assay type: cell-based; conditions: Salmonella enterica, 0.015 ml of 9.5 μg/ml aqueous solution, 25° C., read-out: Inhib. Zone Diam.
[5] = system: Vibrio percolans ATCC 8461; test: as above; assay type: cell-based; conditions: Comamonas terrigena, ATCC8461, 0.015 ml of 9.5 μg/ml aqueous solution, 25° C., read-out: Inhib. Zone Diam.
[6] = system: Proteus vulgaris ATCC 21100; test: as above; assay type: cell-based; conditions: ATCC21100, 0.015 ml of 9.5 μg/ml aqueous solution, 25° C., read-out: Inhib. Zone Diam.
[7] = system: Escherichia coli MB No. 1418; test: as above; assay type: cell-based; conditions: MBNO.1418, 0.015 ml of 9.5 μg/ml aqueous solution, 25° C., read-out: Inhib. Zone Diam.
[8] = system: Pseudomonas stutzeri ATCC 11607; test: as above; assay type: cell-based; conditions: Stutzerimonas stutzeri, ATCC11607, 0.015 ml of 9.5 μg/ml aqueous solution, 25° C., read-out: Inhib. Zone Diam.
[9] = system: Klebsiella pneumoniae MB No. 1264; test: as above; assay type: cell-based; conditions: MBNO.1264, 0.015 ml of 9.5 μg/ml aqueous solution, 25° C., read-out: Inhib. Zone Diam.
[10] = system: Pseudomonas aeruginosa MB No. 2824; test: as above; assay type: cell-based; conditions: MBNO.2824, 0.015 ml of 9.5 μg/ml aqueous solution, 25° C., read-out: Inhib. Zone Diam.
[11] = system: Streptococcus faecium MB No. 2820; test: as above; assay type: cell-based; conditions: Enterococcus faecium, MBNO.2820, 0.015 ml of 9.5 μg/ml aqueous solution, 25° C., read-out: Inhib. Zone Diam.
[12] = system: Streptococcus agalactiae MB No. 2875; test: as above; assay type: cell-based; conditions: MBNO.2875, 0.015 ml of 9.5 μg/ml aqueous solution, 25° C., read-out: Inhib. Zone Diam.
[13] = system: Vibrio percolans MB No. 2566 (res. ceph C); test: as above; assay type: cell-based; conditions: Comamonas terrigena, read-out: Inhib. Zone Diam.
[14] = system: Proteus vulgaris MB No. 2112 (episome); test: as above; assay type: cell-based; conditions: read-out: Inhib. Zone Diam.
[15] = system: Proteus mirabilis MB No. 3126; test: as above; assay type: cell-based; conditions: MBNO.3126, 0.015 ml of 9.5 μg/ml aqueous solution, 25° C., read-out: Inhib. Zone Diam.
[16] = system: Vibrio percolans ATCC 8461; test: Antibiotic spectrum profile, agar zone of inhibition, with penicillinase; assay type: cell-based; conditions: Comamonas terrigena, ATCC8461; 0.015 ml of 9.5 μg/ml aqueous solution; 25° C.; Vibrio Percolans ATCC 8461 + 2×10^5 u/ml penicillinase; read-out: Inhib. Zone Diam.
[17] = Stability in aqueous solution under acidic conditions; assay type: physicochemical; conditions: free acid form not isolated
[18] = system: various gram-positive and gram-negative bacteria; test: Antibacterial activity (statement); assay type: cell-based
bacterial β-lactamases = test: Inhibition of bacterial β-lactamases (statement); assay type: biochemical

Structure (SMILES): CC(=O)NCCSC1=C(C(=O)O)N2C(=O)C(C(C)OS(=O)(=O)O)C2C1 (stereo not shown) [Antibiotic 890A10]
- zone of inhibition at 9.5 µg/mL [1]: 0 mm
- zone of inhibition at 9.5 µg/mL [2]: 20 mm
- zone of inhibition at 9.5 µg/mL [3]: 24 mm
- zone of inhibition at 9.5 µg/mL [4]: 28 mm
- zone of inhibition at 9.5 µg/mL [5]: 33 mm
- zone of inhibition at 9.5 µg/mL [6]: 30 mm
- zone of inhibition at 9.5 µg/mL [7]: 25 mm
- zone of inhibition at 9.5 µg/mL [8]: 0 mm
- zone of inhibition at 9.5 µg/mL [9]: 19 mm
- zone of inhibition at 9.5 µg/mL [10]: 0 mm
- zone of inhibition at 9.5 µg/mL [11]: 0 mm
- zone of inhibition at 9.5 µg/mL [12]: 29 mm
- zone of inhibition at 9.5 µg/mL [13]: 22 mm
- zone of inhibition at 9.5 µg/mL [14]: 30 mm
- zone of inhibition at 9.5 µg/mL [15]: 29 mm
- zone of inhibition at 9.5 µg/mL [16]: 25 mm
- stability under acidic conditions in aqueous solution [17]: unstable
- antibacterial activity [18]: active against various gram-positive and gram-negative bacteria
- inhibition of bacterial β-lactamases (bacterial β-lactamases): potent inhibitor of bacterial β-lactamases
